Active and inactive are the calls of the source. The rule behind the calls is not given here.
What was measured:
[1] = target: 3',5'-cyclic-AMP phosphodiesterase 4B (Homo sapiens) (UniProt Q07343); test: Inhibition of PDE4B (unknown origin) expressed in HEK293 cells assessed as increase in forskolin-stimulated cAMP level at 30 uM preincubated for 30 mins followed by forskolin-stimulation measured after 4 hrs by luciferase reporter gene assay relative to control; assay type: functional, cell-based
[2] = target: 3',5'-cyclic-AMP phosphodiesterase 4B (Homo sapiens) (UniProt Q07343); test: Inhibition of PDE4B (unknown origin) expressed in HEK293 cells assessed as increase in forskolin-stimulated cAMP level preincubated for 30 mins followed by forskolin-stimulation measured after 4 hrs by luciferase reporter gene assay; assay type: functional, cell-based

3',5'-cyclic-AMP phosphodiesterase 4B (Homo sapiens), sequence (Q07343 whole entry): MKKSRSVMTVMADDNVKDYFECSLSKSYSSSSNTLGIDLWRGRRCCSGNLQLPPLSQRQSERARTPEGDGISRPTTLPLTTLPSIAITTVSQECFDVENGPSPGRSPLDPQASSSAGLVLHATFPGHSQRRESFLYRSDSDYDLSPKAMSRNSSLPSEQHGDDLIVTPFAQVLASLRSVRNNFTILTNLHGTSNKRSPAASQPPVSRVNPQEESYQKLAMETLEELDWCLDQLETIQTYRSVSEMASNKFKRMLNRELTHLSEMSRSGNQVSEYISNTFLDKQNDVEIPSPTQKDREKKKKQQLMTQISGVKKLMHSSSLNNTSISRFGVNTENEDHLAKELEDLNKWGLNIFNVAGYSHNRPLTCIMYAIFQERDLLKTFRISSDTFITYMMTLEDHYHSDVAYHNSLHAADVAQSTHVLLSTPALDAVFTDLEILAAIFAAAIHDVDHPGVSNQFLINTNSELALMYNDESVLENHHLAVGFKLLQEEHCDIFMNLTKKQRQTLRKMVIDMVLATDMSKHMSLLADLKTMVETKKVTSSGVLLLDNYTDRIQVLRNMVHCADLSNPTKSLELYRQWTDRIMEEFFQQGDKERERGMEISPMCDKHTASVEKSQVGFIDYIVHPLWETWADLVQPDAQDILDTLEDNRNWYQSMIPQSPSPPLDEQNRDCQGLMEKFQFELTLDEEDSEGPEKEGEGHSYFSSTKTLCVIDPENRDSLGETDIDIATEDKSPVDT

| SMILES | inhibition [1] | inhibition [2] | fold change (FC) [1] |
| --- | --- | --- | --- |
| CS(=O)(=O)n1c(COCCN2COc3ccccc3C2=O)cc2cc(C(F)(F)F)ccc21 | Active |  |  |
| CC(=O)c1ccc2c(c1)cc(COCCN1COc3ccccc3C1=O)n2S(C)(=O)=O | inactive |  |  |
| O=C1c2ccccc2OCN1CCOCc1cc2ccccc2o1 | Active |  |  |
| CS(=O)(=O)n1c(COCCN2COc3ccccc3C2=O)cc2cc([N+](=O)[O-])ccc21 |  | Dose-dependent effect | > 5 |
| COc1ccc(C2CNC(=O)C2)cc1OC1CCCC1 (centres undefined) |  |  | > 7 |

Second part, the molecule after the results:

| inhibition [1] | inhibition [2] | fold change (FC) [1] | SMILES |
| --- | --- | --- | --- |
| Active |  |  | CS(=O)(=O)n1c(COCCN2COc3ccccc3C2=O)cc2cc(Cl)ccc21 |
| Active |  |  | CS(=O)(=O)n1c(COCCN2COc3ccccc3C2=O)cc2cc(F)ccc21 |
| Active |  |  | CS(=O)(=O)n1c(COCCN2COc3ccccc3C2=O)cc2cc(C#N)ccc21 |
